Source: patent publication US12351580B2, “NLRP3 modulators” (Innate Tumor Immunity, Inc., priority 2017, dated 2025)

Biological target: T1, TLR7 (Homo sapiens, UniProt Q9NYK1)
T1 construct: host or cells: HEK-Blue cells (human HEK) co-expressing TLR7 and an NF-kB/AP1-inducible SEAP reporter
T1 sequence (Q9NYK1 27-1049): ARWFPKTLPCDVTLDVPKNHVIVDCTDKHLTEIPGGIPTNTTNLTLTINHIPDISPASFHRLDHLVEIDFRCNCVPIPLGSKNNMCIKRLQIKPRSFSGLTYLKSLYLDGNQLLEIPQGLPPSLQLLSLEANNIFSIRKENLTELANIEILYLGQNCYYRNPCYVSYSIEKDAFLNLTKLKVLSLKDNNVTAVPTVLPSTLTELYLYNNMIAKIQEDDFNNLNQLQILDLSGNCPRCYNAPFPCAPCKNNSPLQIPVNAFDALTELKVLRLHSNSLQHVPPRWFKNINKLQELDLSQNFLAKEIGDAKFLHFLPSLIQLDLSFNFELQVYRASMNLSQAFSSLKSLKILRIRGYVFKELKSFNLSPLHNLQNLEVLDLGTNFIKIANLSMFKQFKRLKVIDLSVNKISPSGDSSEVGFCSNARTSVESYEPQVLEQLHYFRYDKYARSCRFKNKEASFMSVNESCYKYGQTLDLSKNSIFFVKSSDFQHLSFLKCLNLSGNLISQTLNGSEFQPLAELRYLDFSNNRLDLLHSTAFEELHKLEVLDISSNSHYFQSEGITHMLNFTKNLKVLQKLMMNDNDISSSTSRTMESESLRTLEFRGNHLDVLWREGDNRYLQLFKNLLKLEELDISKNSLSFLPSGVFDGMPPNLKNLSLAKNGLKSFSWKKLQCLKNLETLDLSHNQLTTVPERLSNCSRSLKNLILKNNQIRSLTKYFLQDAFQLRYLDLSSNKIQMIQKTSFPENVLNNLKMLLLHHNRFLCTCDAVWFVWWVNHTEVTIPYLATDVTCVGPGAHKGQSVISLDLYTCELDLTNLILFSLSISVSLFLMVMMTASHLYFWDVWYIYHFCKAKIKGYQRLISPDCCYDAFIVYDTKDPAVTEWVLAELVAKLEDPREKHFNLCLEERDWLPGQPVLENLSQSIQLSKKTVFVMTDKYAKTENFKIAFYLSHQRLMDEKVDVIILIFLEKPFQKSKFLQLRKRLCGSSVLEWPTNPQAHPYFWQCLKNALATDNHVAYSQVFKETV
Assay: In vitro human TLR7 binding reporter assay (HEK-Blue, NF-kB/AP1-inducible SEAP)
Format: cell-based
Settings: activity range symbols
Method in brief: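 Reporter cells are plated at 15,000 per well and rested 24 h. Next day, test compounds or DMSO are dispensed, followed by 18 h incubation at 37 °C, 5% CO2.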

Compound	EC50 [µM]
CCC(=O)N(CC)Cc1nc2c(N)nc3cc(-n4cccn4)ccc3c2n1CCO [Compound 478, N-{[4-amino-1-(2-hydroxyethyl)-7-(1H-pyrazol-1-yl)-1H-imidazo[4,5-c]quinolin-2-yl]methyl}-N-ethylpropanamide]	> 100
CCN(Cc1nc2c(N)nc3cc(-n4cccn4)ccc3c2n1CC)C(C)=O [Compound 479, N-{[4-amino-1-ethyl-7-(1H-pyrazol-1-yl)-1H-imidazo[4,5-c]quinolin-2-yl]methyl}-N-ethylacetamide]	> 100
CCC(=O)N(CC)Cc1nc2c(N)nc3cc(-c4cccs4)ccc3c2n1CC [Compound 480, N-{[4-amino-1-ethyl-7-(thiophen-2-yl)-1H-imidazo[4,5-c]quinolin-2-yl]methyl}-N-ethylpropanamide]	> 100
CCC(=O)N(CC)Cc1nc2c(N)nc3cc(-n4cccn4)ccc3c2n1CC [Compound 481, N-{[4-amino-1-ethyl-7-(1H-pyrazol-1-yl)-1H-imidazo[4,5-c]quinolin-2-yl]methyl}-N-ethylpropanamide]	> 100
CCN(Cc1nc2c(N)nc3cc(-c4cccs4)ccc3c2n1CCO)C(C)=O [Compound 482, N-{[4-amino-1-(2-hydroxyethyl)-7-(thiophen-2-yl)-1H-imidazo[4,5-c]quinolin-2-yl]methyl}-N-ethylacetamide]	> 100

The remaining lines, values ahead:

EC50 [µM]	Compound
> 100	CCC(=O)N(CC)Cc1nc2c(N)nc3cc(-c4ccn[nH]4)ccc3c2n1CC [Compound 473, N-{[4-amino-1-ethyl-7-(1H-pyrazol-5-yl)-1H-imidazo[4,5-c]quinolin-2-yl]methyl}-N-ethylpropanamide]
> 100	CCN(Cc1nc2c(N)nc3cc(-c4ccn[nH]4)ccc3c2n1CC)C(C)=O [Compound 474, N-{[4-amino-1-ethyl-7-(1H-pyrazol-5-yl)-1H-imidazo[4,5-c]quinolin-2-yl]methyl}-N-ethylacetamide]
> 100	CCC(=O)N(CC)Cc1nc2c(N)nc3cc(-c4ccn[nH]4)ccc3c2n1CCO [Compound 475, N-{[4-amino-1-(2-hydroxyethyl)-7-(1H-pyrazol-5-yl)-1H-imidazo[4,5-c]quinolin-2-yl]methyl}-N-ethylpropanamide]
> 100	CCN(Cc1nc2c(N)nc3cc(-n4cccn4)ccc3c2n1CCO)C(C)=O [Compound 476, N-{[4-amino-1-(2-hydroxyethyl)-7-(1H-pyrazol-1-yl)-1H-imidazo[4,5-c]quinolin-2-yl]methyl}-N-ethylacetamide]
> 100	CCNCc1nc2c(N)nc3cc(-n4cccn4)ccc3c2n1CCO [Compound 477, 2-[4-amino-2-[(ethylamino)methyl]-7-(1H-pyrazol-1-yl)-1H-imidazo[4,5-c]quinolin-l-yl]ethan-1-ol]
